Results as given in the Deep4Chem optical property database.

Test: photoluminescence quantum yield (fraction); solvent given as SMILES
[1] = in c1cc(-c2cccc(-n3c4ccccc4c4ccccc43)c2)cc(-n2c3ccccc3c3ccccc32)c1

## COC(=O)C(NC(=O)OC(C)(C)C)c1ccc2oc(-c3cc(OC)c(OC)cc3OC)nc2c1 (configuration not stated)
In CC1CCCCC1
  photoluminescence quantum yield: 0.58
In CC#N
  photoluminescence quantum yield: 0.79
In CO
  photoluminescence quantum yield: 0.81

## CC[n+]1c(C=C2C(=O)C(C=C3Sc4cc(Cl)ccc4N3C)=C2[O-])[se]c2ccccc21
In CC(C)O
  photoluminescence quantum yield: 0.17

## CCCCCCc1cc2c(s1)-c1sc(CCCCCC)cc1P(c1ccccc1)(c1ccccc1)=[O+][B-]2(c1c(C)cc(C)cc1C)c1c(C)cc(C)cc1C
In C1CCOC1
  photoluminescence quantum yield: 0.06

## CCN(CC)c1ccc(/C=C/c2ccc(-c3ccc(/C=C/c4ccc(N(CC)CC)cc4)s3)s2)cc1
In C1CCOC1
  photoluminescence quantum yield: 0.14
In CC#N
  photoluminescence quantum yield: 0.13
In CC(C)=O
  photoluminescence quantum yield: 0.13
In CN(C)C=O
  photoluminescence quantum yield: 0.12
In Cc1ccccc1
  photoluminescence quantum yield: 0.14

## CN(C)c1ccc(/C=C/c2nc(/C=C/c3ccc(N(C)C)cc3)c3ccccc3n2)cc1
In ClCCl
  photoluminescence quantum yield: 0.02

## CCCCC1(CCCC)c2cc(C#Cc3ccc(C=C(c4ccccc4)c4ccccc4)cc3)ccc2-c2ccc(C#Cc3ccc(C=C(c4ccccc4)c4ccccc4)cc3)cc21
In C1CCOC1
  photoluminescence quantum yield: 0.048

## CCCCCCCCC1(CCCCCCCC)c2cc(-c3ccc(C=C4C(=O)c5ccccc5C4=O)cc3)ccc2-c2ccc(-c3ccc(C=C4C(=O)c5ccccc5C4=O)cc3)cc21
In C1CCOC1
  photoluminescence quantum yield: 0.048
In CC(C)=O
  photoluminescence quantum yield: 0.116
In CCCCCC
  photoluminescence quantum yield: 0.007
In CS(C)=O
  photoluminescence quantum yield: 0.245
In Cc1ccccc1
  photoluminescence quantum yield: 0.011
In ClC(Cl)Cl
  photoluminescence quantum yield: 0.014

## Cc1cc(C)c(B(c2ccccc2N(c2ccccc2)c2ccccc2)c2c(C)cc(C)cc2C)c(C)c1
In Cc1ccccc1
  photoluminescence quantum yield: 0.73

## CC1(C)c2ccccc2N2c3ccccc3C3(c4cc(C#N)ccc4-c4ccc(C#N)cc43)c3cccc1c32
In Cc1ccccc1
  photoluminescence quantum yield: 0.71

## Cc1cc(-c2nc(-c3ccccc3)nc(-c3ccccc3)n2)c(C)cc1-c1ccc2c(c1)C1(c3ccccc3-c3ccccc31)c1ccccc1N2c1ccccc1
[1]
  photoluminescence quantum yield: 0.98

## c1ccc(-c2nc(-c3ccccc3)nc(-c3ccc(N4c5ccccc5C5(c6ccccc64)c4ccccc4N(c4ccc(-c6nc(-c7ccccc7)nc(-c7ccccc7)n6)cc4)c4ccccc45)cc3)n2)cc1
In O=P(c1ccccc1)(c1ccccc1)c1ccccc1Oc1ccccc1P(=O)(c1ccccc1)c1ccccc1
  photoluminescence quantum yield: 0.79

## [O-]c1ccccc1-c1[nH+]c2c3cccnc3c3ncccc3c2n1-c1ccccc1
In Cc1ccccc1
  photoluminescence quantum yield: 0.125

## CC1(C)c2ccccc2N(c2ccc(-c3nc4c(C#N)ccc(C#N)c4nc3-c3ccc(N4c5ccccc5C(C)(C)c5ccccc54)cc3)cc2)c2ccccc21
In Cc1ccccc1
  photoluminescence quantum yield: 0.72

## c1ccc2c(-n3c(-c4ccc(-c5ccc(-c6nc7c8ccccc8c8ccccc8c7n6-c6cccc7ccccc67)c6ccccc56)c5ccccc45)nc4c5ccccc5c5ccccc5c43)cccc2c1
In ClCCl
  photoluminescence quantum yield: 0.75

## CN(C)c1ccc(C#Cc2ccccc2)cc1
In C1CCCCC1
  photoluminescence quantum yield: 0.35
In C1CCOC1
  photoluminescence quantum yield: 0.244
In C1COCCO1
  photoluminescence quantum yield: 0.32
In CC1CCCO1
  photoluminescence quantum yield: 0.314
In CC#N
  photoluminescence quantum yield: 0.102
In CC(C)=O
  photoluminescence quantum yield: 0.103
In CC(C)CC(C)(C)C
  photoluminescence quantum yield: 0.28
In CC(C)O
  photoluminescence quantum yield: 0.011
In CCCCCCCCCCCCCCCC
  photoluminescence quantum yield: 0.372
In CCCCCCCCCCCCCCCCCl
  photoluminescence quantum yield: 0.409
In CCOC(C)=O
  photoluminescence quantum yield: 0.25
In CCOCC
  photoluminescence quantum yield: 0.11
In CN(C)C=O
  photoluminescence quantum yield: 0.3
In CO
  photoluminescence quantum yield: 0.01
In CS(C)=O
  photoluminescence quantum yield: 0.29
In Cc1ccccc1
  photoluminescence quantum yield: 0.39

## COc1ccc(-c2cc3ccc4cc(-c5ccc(OC)cc5)cc5ccc(c2)c3c45)cc1
In C1CCCCC1
  photoluminescence quantum yield: 0.08
In C1CCOC1
  photoluminescence quantum yield: 0.17
In CC#N
  photoluminescence quantum yield: 0.13
In CCCCCC
  photoluminescence quantum yield: 0.04
In CCO
  photoluminescence quantum yield: 0.12
In CN(C)C=O
  photoluminescence quantum yield: 0.34
In CO
  photoluminescence quantum yield: 0.09
In Cc1ccccc1
  photoluminescence quantum yield: 0.09
In ClC(Cl)Cl
  photoluminescence quantum yield: 0.04
In ClCCl
  photoluminescence quantum yield: 0.09

## O=c1[nH]nc(-c2ccc(/C=C/c3ccc(-c4n[nH]c(=O)o4)cc3)cc2)o1
In CN(C)C=O
  photoluminescence quantum yield: 0.5

## CCN(CC)c1ccc2ccc(=O)oc2c1
In CC(C)=O
  photoluminescence quantum yield: 0.55
In CCCCCC
  photoluminescence quantum yield: 0.85
In CCCCCCC
  photoluminescence quantum yield: 0.85
In CCCCO
  photoluminescence quantum yield: 0.47
In CCCO
  photoluminescence quantum yield: 0.52
In CCO
  photoluminescence quantum yield: 0.39
In CCOCC
  photoluminescence quantum yield: 0.8
In CN(C)C=O
  photoluminescence quantum yield: 0.56
In CO
  photoluminescence quantum yield: 0.27
In Cc1ccccc1
  photoluminescence quantum yield: 0.83
In ClC(Cl)Cl
  photoluminescence quantum yield: 0.62
In ClCCl
  photoluminescence quantum yield: 0.9
In OCCO
  photoluminescence quantum yield: 0.25
In c1ccccc1
  photoluminescence quantum yield: 0.83

## CC(C)(C)c1ccc(N2c3ccc(C(C)(C)C)cc3B3c4cc(C(C)(C)C)ccc4N(c4ccc(C(C)(C)C)cc4)c4cc(-n5c6ccc(C(C)(C)C)cc6c6cc(C(C)(C)C)ccc65)cc2c43)cc1
In Cc1ccccc1
  photoluminescence quantum yield: 0.975

## CN1/C(=C/C=C(/C=C/c2sc3ccccc3[n+]2C)c2ccccc2)Sc2ccccc21
In CCO
  photoluminescence quantum yield: 0.06
In CO
  photoluminescence quantum yield: 0.07
In CS(C)=O
  photoluminescence quantum yield: 0.24

## C[Si](C)(C)c1ccc(-c2ccc(-c3ccc(-c4ccc(-c5ccc([Si](C)(C)C)cc5)s4)c4nsnc34)s2)cc1
In C1CCOC1
  photoluminescence quantum yield: 0.77

## CCCCCCCC1=C(C)C(=O)n2c1cc1[nH]c(C(=O)OC)c(C)c1c2=O
In C1CCCCC1
  photoluminescence quantum yield: 0.02
In CO
  photoluminescence quantum yield: 0.73
In CS(C)=O
  photoluminescence quantum yield: 0.83
In ClC(Cl)Cl
  photoluminescence quantum yield: 0.52
In c1ccccc1
  photoluminescence quantum yield: 0.1

## CC(=O)c1ccc(C#Cc2ccc3c(N(C)C)cc(-c4ccccc4)cc3c2)cc1
In ClCCl
  photoluminescence quantum yield: 0.01

## Cc1ccc(C#Cc2ccc(C#Cc3ccc(C#Cc4ccccc4C#N)cc3C#N)cc2C#N)cc1
In ClC(Cl)Cl
  photoluminescence quantum yield: 0.96

## C#Cc1ccc2cc(/C=C/C(=O)OCC)c(=O)oc2c1
In CCO
  photoluminescence quantum yield: 0.36

## CC1=CC(C)=[N+]2C1=C(c1c3ccccc3c(C)c3ccccc13)c1c(C)cc(C)n1[B-]2(F)F
In CC#N
  photoluminescence quantum yield: 0.002
In CCCCCC
  photoluminescence quantum yield: 0.91
In CCO
  photoluminescence quantum yield: 0.005
In CN(C)C=O
  photoluminescence quantum yield: 0.003
In Cc1ccccc1
  photoluminescence quantum yield: 0.95
In ClCCl
  photoluminescence quantum yield: 0.011

## O=C(O)c1ccc(-c2nc(-c3ccccc3)c3c4ccccc4ccn23)cc1
In CC#N
  photoluminescence quantum yield: 0.38

## C1=Cc2ccccc2C(=Cc2ccc(-c3ccc(C=C4c5ccccc5-c5ccccc54)cc3)cc2)c2ccccc21
In C1CCOC1
  photoluminescence quantum yield: 0.00016

## CCCCOc1ccc2cc(-c3ccc(C)cc3)c(=O)oc2c1
In C1CCOC1
  photoluminescence quantum yield: 0.611
In CCCCCC
  photoluminescence quantum yield: 0.564
In CCO
  photoluminescence quantum yield: 0.597
In CS(C)=O
  photoluminescence quantum yield: 0.585

## Cc1ccc2nc3c(=O)[nH]c(=O)[nH]c3nc2c1
In CC#N
  photoluminescence quantum yield: 0.017
In ClCCCl
  photoluminescence quantum yield: 0.024

## COc1ccccc1-c1nc(-c2ccc(C(F)(F)F)cc2)n(-c2ccc(C)cc2)c1-c1ccccc1OC
In CC(C)O
  photoluminescence quantum yield: 0.65
In CCCCCC
  photoluminescence quantum yield: 0.49
In CO
  photoluminescence quantum yield: 0.6
In CS(C)=O
  photoluminescence quantum yield: 0.49
In ClCCl
  photoluminescence quantum yield: 0.27

## NS(=O)(=O)c1ccc(N2N=C(c3ccc(O)cc3)CC2c2ccccc2)cc1 (configuration not stated)
In C1CCOC1
  photoluminescence quantum yield: 0.65
In C1COCCO1
  photoluminescence quantum yield: 0.63
In CC#N
  photoluminescence quantum yield: 0.6
In CC(C)O
  photoluminescence quantum yield: 0.44
In CCO
  photoluminescence quantum yield: 0.36
In CCOC(C)=O
  photoluminescence quantum yield: 0.66
In CN(C)C=O
  photoluminescence quantum yield: 0.68
In CO
  photoluminescence quantum yield: 0.28
In CS(C)=O
  photoluminescence quantum yield: 0.7
In O
  photoluminescence quantum yield: 0.41

## CN(C)c1ccc(C2=Cc3cccc[n+]3[B-](F)(F)O2)cc1
In C1CCOC1
  photoluminescence quantum yield: 0.684
In C1COCCO1
  photoluminescence quantum yield: 0.794
In CC1CCCCC1
  photoluminescence quantum yield: 0.519
In CC#N
  photoluminescence quantum yield: 0.517
In CCOC(C)=O
  photoluminescence quantum yield: 0.699
In CCOCC
  photoluminescence quantum yield: 0.868
In CN(C)C=O
  photoluminescence quantum yield: 0.382
In CO
  photoluminescence quantum yield: 0.454
In COC(C)=O
  photoluminescence quantum yield: 0.569
In ClC(Cl)Cl
  photoluminescence quantum yield: 0.705

## COc1cc(OC)cc(C2=CC(c3ccccc3)=C(c3ccccc3)C2)c1
In ClCCl
  photoluminescence quantum yield: 0.0361

## c1ccc2c(c1)Cc1ccccc1N2c1c2ccccc2cc2ccccc12
In Cc1ccccc1
  photoluminescence quantum yield: 0.06

## c1ccc(N(c2ccccc2)c2ccc(-c3nc(-c4ccc(N(c5ccccc5)c5ccccc5)cc4)c4ccccc4n3)cc2)cc1
In ClCCl
  photoluminescence quantum yield: 0.3

## CC1(C)c2ccccc2N(c2ccc(-c3nc(C#N)c(C#N)nc3-c3ccc(N4c5ccccc5C(C)(C)c5ccccc54)cc3)cc2)c2ccccc21
In Cc1ccccc1
  photoluminescence quantum yield: 0.2
[1]
  photoluminescence quantum yield: 0.67

## CCOC(=O)c1cc(C(=O)OCC)c2c(C)ccc(OC(=O)OC(C)(C)C)c2n1
In CCO
  photoluminescence quantum yield: 0.22

## C(#Cc1cc2ccc3cc(C#Cc4ccccc4)cc4ccc(c1)c2c34)c1ccccc1
In Cc1ccccc1
  photoluminescence quantum yield: 0.29

## Cc1cc(C)c2c(c1)c1cc(C)cc(C)c1n2-c1ccc2c(c1)Sc1cc3c(cc1B2c1c(C(C)C)cc(C(C)C)cc1C(C)C)B(c1c(C(C)C)cc(C(C)C)cc1C(C)C)c1ccccc1S3
In Cc1ccccc1
  photoluminescence quantum yield: 0.17
In O=P(c1ccccc1)(c1ccccc1)c1ccc2oc3ccc(P(=O)(c4ccccc4)c4ccccc4)cc3c2c1
  photoluminescence quantum yield: 0.93

## COc1ccc(C(=O)OCc2c(C)c(=O)n3c(=O)c(C)c(C)n23)cc1
In CCO
  photoluminescence quantum yield: 0.637

## CCCCN1c2ccccc2Sc2cc(/C=C\c3cc(=O)oc4cc(C)ccc34)ccc21
In ClC(Cl)Cl
  photoluminescence quantum yield: 0.21

## CC1(C)C(/C=C/C=C/C=C/C=C2/N(CCCCCC(=O)O)c3ccc(S(=O)(=O)[O-])cc3C2(C)C)=[N+](CCCCCC(=O)O)c2ccc(S(=O)(=O)[O-])cc21
In CO
  photoluminescence quantum yield: 0.62
In O
  photoluminescence quantum yield: 0.28

## COc1cccc(-c2[nH]c(=O)n3c2-c2ccccc2C3=O)c1O
In CC#N
  photoluminescence quantum yield: 0.51
In CO
  photoluminescence quantum yield: 0.02
In ClCCl
  photoluminescence quantum yield: 0.75

## Cc1cc2c3ccccc3n(C)c2c2c1c1ccccc1n2C
In ClCCl
  photoluminescence quantum yield: 0.114

## c1ccc(B2Nc3cc4c(cc3-c3occc32)NB(c2ccccc2)c2ccoc2-4)cc1
In ClCCl
  photoluminescence quantum yield: 0.26

## C[Si]1(c2ccccc2)C(c2ccc3c4ccccc4n(-c4ccccc4)c3c2)=C(c2ccccc2)C(c2ccccc2)=C1c1ccc2c3ccccc3n(-c3ccccc3)c2c1
In C1CCOC1
  photoluminescence quantum yield: 0.0575
